Holding throughout (test): NCI-60 cell line screen, 48 h
Test [1] concerns ACHN renal.
The test system of test [2] is DLD-1 colon.
For test [3], the system named is DMS 273 small cell lung.
The test system of test [4] is HOP-92 NSCLC.
The test system of test [5] is LXFL 529 NSCLC.
Test [6] has as its system M19-MEL melanoma.
Test [7] concerns MOLT-4 leukemia.
For test [8], the system named is NCI-H460 lung.
The subject of test [9] is NCI-H522 lung.
The test system of test [10] is OVCAR-4 ovarian.
The subject of test [11] is SF-268 CNS.
Test [12] concerns SK-MEL-28 melanoma.
Test [13] has as its system SNB-78 CNS.
Test [14] has as its system U251 CNS.
Test [15] has as its system DMS 114 small cell lung.
The test system of test [16] is KM20L2 colon.
The test system of test [17] is HOP-18 NSCLC.
Test [18] concerns XF 498 CNS.
The subject of test [19] is RXF-631 renal.

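In this assay, cells in 96-well plates receive the compound at five concentrations for 48 hours. Endpoints are linearly interpolated between the surrounding concentrations. At the TGI there is no net growth.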 Bounds are passed on as bounds.

`COc1ccc(Cc2cc(OC)c(OC)c(OC)c2)cc1`: the TGI in test [1] was over 93.3 µM; in [2] it was over 100 µM; in test [3], over 100 µM; in [4] it was 85.6 µM; in test [5], over 100 µM; in [6], over 100 µM. For the same compound, the TGI was 23.9 µM in test [7]; 47 µM in [8]; 0.798 µM in test [9]; over 100 µM in test [10]; over 100 µM in [11]; over 100 µM in [12]. Besides, the TGI in test [13] is over 100 µM; in test [14], 34.3 µM.
Take `CO[C@H](C(=O)O[C@H]1C(=O)N2CC[C@@H]3CCC[C@H]1C32C)c1ccccc1` (stereo not given in full): the TGI in [1], in [2], in test [15], in test [16], in test [5] and in test [6] was over 100 µM throughout. The TGI in test [7], in test [8], in [9], in [10], in test [11] and in test [12] was over 100 µM each time. Besides, the TGI in [13] and in [14] was over 100 µM in each case.
`O=C(CSc1nnc(Cc2ccccc2)o1)Nc1ccc(Cl)cc1[N+](=O)[O-]`: the TGI in test [1] came to 25.2 µM; in [3], 33.9 µM; in [17], 28.3 µM; in test [16], 45.9 µM; in [5], 40.8 µM; in [6], 34.8 µM. Also, the TGI in test [7] was over 100 µM; in [9], 9.26 µM; in [10] it was 33.9 µM; in test [11], 40.2 µM; in [12] it was 29 µM; in test [13], 47.6 µM. The TGI is 34.8 µM in test [14] and 31.3 µM in test [18].
As to `Cc1ccc(NC(=O)CCc2nnc3s/c(=C\c4cccc([N+](=O)[O-])c4)c(=O)n23)cc1`, the TGI in [1], in test [2], in test [15], in test [3], in test [17] and in test [4] was over 100 µM throughout. Further, the TGI in [16], in [5], in test [6], in [7], in test [8] and in test [9] was over 100 µM in each case. In addition, the TGI in test [10], in test [19], in test [11], in test [12], in test [13] and in test [14] was over 100 µM throughout. Besides, in [18], the TGI was over 100 µM.
In the case of `O=C1C[C@@H]2[C@@H](CCC23CCCC3)N1`, the TGI in test [1], in test [2], in [3], in test [17], in [16] and in test [5] was over 100 µM in each case. The TGI in [6], in test [7], in test [8], in [9], in test [10] and in [11] was over 100 µM throughout. Besides, the TGI in [12], in [13] and in [14] was over 100 µM in each case.
As to `CC(=O)NNc1nc(C)c(C(/C=C/c2ccc(Cl)cc2)=N\N=C(N)N)s1`, the TGI in test [1], in test [2], in [3], in test [4], in test [16] and in test [5] was over 100 µM in each case. For the same compound, the TGI in [6], in test [7], in [8], in test [9], in test [10] and in test [19] was over 100 µM each time. Moreover, the TGI in test [11], in test [12], in test [13], in test [14] and in [18] was over 100 µM throughout.
In the case of `Cc1cc(N(CCC#N)CCC#N)ccc1/C=C1N=C(/C=C/c2ccccc2)N(c2ccc(S(N)(=O)=O)cc2)C\1=O`, the TGI in test [1], in test [2], in test [15], in test [4], in test [16] and in test [5] was over 100 µM each time. Moreover, the TGI in test [6], in test [7], in [8], in [9], in [10] and in test [19] was over 100 µM in each case. Moreover, the TGI in test [11], in test [12], in test [13] and in test [14] was over 100 µM throughout.
On to `CN1C(=S)CSc2ccccc21`, for which the TGI in [1], in test [2], in test [15], in test [3], in test [4] and in test [16] was over 100 µM in each case. The TGI in test [5], in test [6], in [7], in test [8], in [9] and in [10] was over 100 µM each time. In addition, the TGI in [11], in [12], in test [13], in test [14] and in test [18] was over 100 µM throughout.
Turning to `O=C1N=CN=C2C=CC(Cl)=C(I)C12` (stereo not given), the TGI in test [1], in test [2], in test [15], in test [3], in test [16] and in test [5] was over 100 µM each time. In addition, the TGI in test [6], in test [7], in test [8], in test [10], in [11] and in [12] was over 100 µM each time. In addition, the TGI in test [14] and in [18] was over 100 µM in each case.

The values are drawn from PubChem BioAssay (NCI).
